Entries after “also recorded” stand apart in the source; their conditions may differ.
Key:
BG02 hESCs = assay: Proliferation of hESCs in conditioned medium with AG825; format: cell-based, human
Source text: (§1) Colony and cell-counting assays confirmed that LongR3-IGFl and HRG played the major roles in self-renewal and proliferation in the context of one of the embodiments of the present invention (Fig. 6D, 6E). Phosphorylation of IGF1R, IR, […], ErbB2, and ErbB3 was also observed in both steady-state DC-HAIF cultures, and in starved cultures that were pulsed with DC-HAIF (Fig. 6F).

ErbB2 = molecular target: T1, ErbB2 (Homo sapiens, UniProt P04626); assay: Western blotting of ErbB2 autophosphorylation in starved/heregulin pulsed hESCs; format: cell-based; settings: starved/heregulin (HRG) pulsed hESCs in DC-HAIF
T1 construct: endogenous in cells; host or cells: human embryonic stem cells (hESCs) growing in DC-HAIF
Source text: as §1

R1 mouse ES cells = assay: Effect of ErbB1/ErbB2 inhibitors on proliferation of mouse ES cells (alkaline phosphatase staining, 8 days); format: cell-based
Description: AG1478 and AG879 were used to examine the role of HRG/ErbB signaling in mouse ES cells. R1 mouse ES cells were maintained in standard conditions in DMEM, 10% FBS, 10% KSR, 0.5 U/mL penicillin, 0.5 U/mL streptomycin, 1xNEAA, 1 mM sodium pyruvate, 1000 U/mL LIF (ESGRO), 0.1 mM β-ME, and were passaged with 0.5% trypsin/EDTA. 2x10^5 cells/well were plated in 6 well trays on MATRIGEL™ diluted at 1:1000. The day after plating, DMSO (carrier control), 1-50 µM AG1478, or 1-50 µM AG879 was added with fresh medium. The cells were cultured an additional 8 days, with daily media changes. The cultures were then fixed and stained for alkaline phosphatase activity.

BGOlv cells = assay: Effect of ErbB tyrosine kinase inhibitors on proliferation of BG01v hESCs (alkaline phosphatase staining after 5 days); format: cell-based
Description: The EGF domain family of ligands bind to the ErbB family of receptor tyrosine kinases. To examine the effect of known inhibitors of ErbB tyrosine kinases in hESCs, BGOlv cells were plated in 6 well trays on MATRIGEL™ diluted at 1:1000, in defined culture medium (DC) containing 100 ng/mL LongR3-IGFl, 8 ng/mL FGF2 and 1 ng/mL Activin A. On the next day, DMSO (carrier control), 50 nM-20 µM AG1478 (an ErbB1 inhibitor), or 100 nM-20 µM AG879 (an ErbB2 inhibitor) was added with fresh medium. The cells were cultured for an additional 5 days, with daily media changes. The cultures were then fixed and stained for alkaline phosphatase activity.

[1] = tested on: pancreatic epithelial and endocrine type cells; assay: Re-aggregation of dissociated stage 4 or stage 5 adherent cultures with ROCK inhibitor; format: cell-based, human; settings: 10µM
Description: Adherent cultures at either stage 4 (about d10 - d14 into the differentiation protocol; pancreatic epithelial and endocrine type cells) or stage 5 (about day 16 to day 30 into the differentiation protocol; endocrine precursor and endocrine cells) were similarly dissociated into single cells, counted, and pelleted. The cell pellet was then resuspended in DMEM CMRL supplemented Pen/Strep and Glutamax, and IX B27-supplement and DNase (50-100 µg/ml, Roche Diagnostics) and 0-2% FBS. […] Cells were equally distributed into 6-well plates and placed on a rotating platform at 100 rpm to 140 rpm form 4 hours to overnight substantially as described above.

BG02 cells = assay: Suspension cultures with and without an apoptosis inhibitor, cell counting; format: cell-based, human
Description: To attenuate the loss of cells after initial passaging in suspension, an inhibitor of apoptosis was added to the medium. Cells were passaged as in Example 12, except that Y-27632, an inhibitor of p160-Rho-associated coiled-coil kinase (ROCK), was added to the medium.
Suspension aggregates of BG02 cells were formed by seeding 2x10^6 single cells in 6-well dishes in 3 mL DC-HAIF medium, at 100 rpm on a rotating platform in an incubator (Table 2, Experiment A). 10 µM Y27632 ROCK inhibitor was added to test wells for the course of the experiment and the cultures observed daily and counted after 24 hours (day 1) and after 4 or 5 days. […] Cell counting confirmed that more viable cells were present in the presence of inhibitor (Table 2, Experiment A). This difference in cell number persisted throughout the course of the culture period, with more cells also observed on day 4, compared to cultures without inhibitor. As with previous suspension culture experiments, cells exposed to Y27632 could also be serially passaged, and maintained in an undifferentiated state (not shown).
As previous experiments had shown that growth rates of cells in suspension and adherent culture were similar after the initial 24 hours, an experiment was performed where Y27632 was removed after this initial period (Table 2, Experiment B). […] 1.4x10^7 (+Y27632) and 1.8x107 (+/-Y27632) viable cells were generated when inhibitor was present compared to 3.9x10^6 cells in untreated cultures. This analysis confirmed that Y27632 had the largest impact during the first 24 hours of suspension hESC culture.
Because of the enhanced survival and aggregation observed in the presence of Y27632, an experiment was performed to examine if it was possible to reduce the number of cells used to seed suspension cultures (Table 2, Experiment C). […] To determine if addition of a ROCK inhibitor would allow cell seeding at lower densities, a range of cell concentrations (from about 2x10^6 total cells down to about 1x10^5 total cells was used to seed suspension cultures in 6-well trays cells in 3 mL DC-HAIF. 10 µM Y27632 was added to all conditions, and the cell number and viability assessed on day 5. Successful aggregation and expansion was observed even at low seeding densities. An approximately 13 fold expansion of viable cells was observed even cultures that were only seeded with 1x10^5 cells. Inhibition of ROCK with Y27632 therefore facilitated initial survival of hESCs at much lower densities in this suspension system. Table 2 - Suspension Cultures with and without an Apoptosis Inhibitor

ES cells = assay: Suspension cultures in various media, cell counting; format: cell-based; settings: added to HAIF, HAI, HI
Description: To determine if suspensions of ES cells could be cultured in the absence of FGF2 and/or Activin A, ES cells were cultured in a variety of media, with and without these factors. […] In addition, the cells in each media were successfully passaged with no morphological signs of differentiation. Table 3 - Suspension Cultures in Various Media

[2] = Expt. A, seeding 2x10^6, p0, day 1
[3] = Expt. A, seeding 2x10^6, p0, day 4
[4] = Expt. A, seeding 2x10^6, p1, day 4
[5] = Expt. B, seeding 2x10^6, p0, day 1
[6] = Expt. B, seeding 2x10^6, p0, day 5, +/-Y27632 = inhibitor removed after 24 hours, listed as +/-Y27632
[7] = Expt. B, seeding 2x10^6, p0, day 5, +/-Y27632 = inhibitor removed after 24 hours, listed as +Y27632
[8] = Expt. C, seeding 1x10^6, p0, day 1
[9] = Expt. C, seeding 1x10^6, p0, day 5
[10] = Expt. C, seeding 2x10^6, p0, day 1
[11] = Expt. C, seeding 2x10^6, p0, day 5
[12] = Expt. C, seeding 2.5x10^5, p0, day 1
[13] = Expt. C, seeding 2.5x10^5, p0, day 5
[14] = Expt. C, seeding 5x10^5, p0, day 1
[15] = Expt. C, seeding 5x10^5, p0, day 5
[16] = Expt. C, seeding 10^5, p0, day 1
[17] = Expt. C, seeding 10^5, p0, day 5

T1 sequence (P04626 23-1255): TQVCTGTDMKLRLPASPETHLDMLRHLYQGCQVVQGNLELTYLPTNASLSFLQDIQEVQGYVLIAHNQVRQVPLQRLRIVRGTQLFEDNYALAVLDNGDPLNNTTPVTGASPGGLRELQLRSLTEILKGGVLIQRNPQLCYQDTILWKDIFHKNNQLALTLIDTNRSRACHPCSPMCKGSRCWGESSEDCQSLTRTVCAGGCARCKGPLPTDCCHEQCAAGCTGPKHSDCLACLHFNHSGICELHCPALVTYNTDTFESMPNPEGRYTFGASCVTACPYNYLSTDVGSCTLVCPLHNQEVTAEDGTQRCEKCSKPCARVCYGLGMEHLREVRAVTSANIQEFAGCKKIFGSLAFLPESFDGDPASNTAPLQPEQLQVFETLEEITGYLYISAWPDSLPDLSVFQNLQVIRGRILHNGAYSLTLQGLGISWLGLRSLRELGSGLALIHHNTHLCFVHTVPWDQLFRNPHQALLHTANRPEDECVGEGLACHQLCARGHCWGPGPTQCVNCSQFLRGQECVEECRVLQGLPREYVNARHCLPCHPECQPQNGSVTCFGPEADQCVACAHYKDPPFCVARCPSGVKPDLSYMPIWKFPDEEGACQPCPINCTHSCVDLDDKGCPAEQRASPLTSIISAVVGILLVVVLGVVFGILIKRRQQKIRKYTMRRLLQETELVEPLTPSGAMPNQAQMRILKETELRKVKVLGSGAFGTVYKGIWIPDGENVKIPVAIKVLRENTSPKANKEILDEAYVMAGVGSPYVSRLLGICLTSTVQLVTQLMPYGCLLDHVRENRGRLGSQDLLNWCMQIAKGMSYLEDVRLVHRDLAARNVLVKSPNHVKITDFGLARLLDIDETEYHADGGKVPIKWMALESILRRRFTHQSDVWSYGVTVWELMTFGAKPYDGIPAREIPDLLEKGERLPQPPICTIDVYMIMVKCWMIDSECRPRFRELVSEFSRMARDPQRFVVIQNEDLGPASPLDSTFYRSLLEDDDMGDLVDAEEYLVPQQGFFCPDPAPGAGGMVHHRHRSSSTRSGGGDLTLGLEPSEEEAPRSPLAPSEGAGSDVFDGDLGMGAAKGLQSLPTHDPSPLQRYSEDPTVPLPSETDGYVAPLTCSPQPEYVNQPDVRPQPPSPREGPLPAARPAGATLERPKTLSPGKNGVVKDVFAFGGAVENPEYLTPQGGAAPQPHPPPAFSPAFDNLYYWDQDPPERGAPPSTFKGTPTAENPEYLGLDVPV

COc1cc(C=C(C#N)C(N)=O)cc(CSc2nc3ccccc3s2)c1O [AG825, tyrphostin AG825]
proliferation (BG02 hESCs; 50 µM, conditioned medium (CM)): significantly inhibited proliferation | time viable hESCs could be maintained (BG02 hESCs; in presence of AG825): > 5 days | autophosphorylation of ErbB2 at tyrosine-1248 (ErbB2): inhibited autophosphorylation of ErbB2 at tyrosine-1248; also recorded: inhibits ErbB2 Y1248 phosphorylation

CC(C)(C)c1cc(/C=C(\C#N)C(N)=S)cc(C(C)(C)C)c1O [AG879]
proliferation (R1 mouse ES cells; at 20 µM): may have slowed proliferation | cell growth (R1 mouse ES cells; at 50 µM): substantially inhibited cell growth | differentiation (R1 mouse ES cells; mESCs grown in AG879): did not appear to differentiate | concentration required to inhibit proliferation, mESCs relative to BG01v cells (R1 mouse ES cells; mESCs vs BG01v cells grown in defined conditions): ~10 x | cell growth (BGOlv cells; at 5 µM, 5 days): substantially inhibited cell growth; also recorded: substantially slowed cell growth | cell death (BGOlv cells; at 20 µM): caused cell death | differentiation (BGOlv cells; cultures grown in AG879): inhibit proliferation without inducing differentiation

COc1cc2ncnc(Nc3cccc(Cl)c3)c2cc1OC [AG1478]
cell proliferation (R1 mouse ES cells; 1-50 µM, 8 days, 10% FBS, 10% KSR, LIF): no apparent affect on cell proliferation; also recorded: did not overtly inhibit proliferation | cell proliferation (BGOlv cells; 50 nM-20 µM, 5 days, DC medium): neither DMSO nor AG1478 (50 nM-20 µM) had an apparent affect on cell proliferation; also recorded: did not appear to affect proliferation

C[C@@H](N)[C@H]1CC[C@H](C(=O)Nc2ccncc2)CC1 [Y27632]
cell survival [1]: supported cell survival | expansion of viable cells (BG02 cells; 10 µM Y27632, seeded with 1x10^5 cells, day 5): approximately 13 fold | initial aggregation in suspension culture (BG02 cells; 10 µM, compared to medium without inhibitor): much larger aggregates were formed | differentiation state by RT-PCR (BG02 cells; BG02 suspension culture in the presence of Y27632): remained undifferentiated | cell number when the aggregates were split again (BG02 cells; Expt. A, p1, vs without inhibitor): almost twice as many cells were observed | Cell counts: total (BG02 cells; [2]): 1.6x10^6 | Cell counts: viable (BG02 cells; [2]): 1.2x10^6 | Cell counts: viable, % (BG02 cells; [2]): 74% | Cell counts: total (BG02 cells; [3]): 7.8x10^6 | Cell counts: viable (BG02 cells; [3]): 7.1x10^6 | Cell counts: viable, % (BG02 cells; [3]): 91% | Cell counts: total (BG02 cells; [4]): 4.6x10^6 | Cell counts: viable (BG02 cells; [4]): 4.2x10^6 | Cell counts: viable, % (BG02 cells; [4]): 91% | Cell counts: total (BG02 cells; [5]): 1.9x10^6 | Cell counts: viable (BG02 cells; [5]): 1.4x10^6 | Cell counts: viable, % (BG02 cells; [5]): 73% | Cell counts: total (BG02 cells; [6]): 1.9x10^7 | Cell counts: viable (BG02 cells; [6]): 1.8x10^7 | Cell counts: viable, % (BG02 cells; [6]): 96% | Cell counts: total (BG02 cells; [7]): 1.5x10^7 | Cell counts: viable (BG02 cells; [7]): 1.4x10^7 | Cell counts: viable, % (BG02 cells; [7]): 92% | Cell counts: total (BG02 cells; [8]): 8.7x10^5 | Cell counts: viable (BG02 cells; [8]): 6.6x10^5 | Cell counts: viable, % (BG02 cells; [8]): 76% | Cell counts: total (BG02 cells; [9]): 8.6x10^6 | Cell counts: viable (BG02 cells; [9]): 7.8x10^6 | Cell counts: viable, % (BG02 cells; [9]): 91% | Cell counts: total (BG02 cells; [10]): 1.9x10^6 | Cell counts: viable (BG02 cells; [10]): 1.6x10^6 | Cell counts: viable, % (BG02 cells; [10]): 84% | Cell counts: total (BG02 cells; [11]): 1.4x10^7 | Cell counts: viable (BG02 cells; [11]): 1.2x10^7 | Cell counts: viable, % (BG02 cells; [11]): 90% | Cell counts: total (BG02 cells; [12]): 2.6x10^5 | Cell counts: viable (BG02 cells; [12]): 2.3x10^5 | Cell counts: viable, % (BG02 cells; [12]): 91% | Cell counts: total (BG02 cells; [13]): 2.7x10^6 | Cell counts: viable (BG02 cells; [13]): 2.5x10^6 | Cell counts: viable, % (BG02 cells; [13]): 91% | Cell counts: total (BG02 cells; [14]): 4.6x10^5 | Cell counts: viable (BG02 cells; [14]): 3.5x10^5 | Cell counts: viable, % (BG02 cells; [14]): 75% | Cell counts: total (BG02 cells; [15]): 5.7x10^6 | Cell counts: viable (BG02 cells; [15]): 5.3x10^6 | Cell counts: viable, % (BG02 cells; [15]): 93% | Cell counts: total (BG02 cells; [16]): 6.8x10^4 | Cell counts: viable (BG02 cells; [16]): 5.4x10^4 | Cell counts: viable, % (BG02 cells; [16]): 79% | Cell counts: total (BG02 cells; [17]): 1.4x10^6 | Cell counts: viable (BG02 cells; [17]): 1.3x10^6 | Cell counts: viable, % (BG02 cells; [17]): 92% | yield of cells generated by day 5 (ES cells): increased the yield of cells generated by day 5 in all conditions

Source: patent EP2356213B1, “STEM CELL AGGREGATE SUSPENSION COMPOSITIONS AND METHODS FOR DIFFERENTIATION THEREOF” (VIACYTE, INC., priority 2008, dated 2010)
